Test results reported in PMC11211886 (Frontiers in Pharmacology, 2024).
Values joined by “and” are separate entries in the source; they are usually repeats but may differ in a detail not shown here. Equal values may be shown once. Read-outs that look alike come from different tables or passages of the source.

Columns and labels:
CYP3A4/5 = test: Reversible CYP inhibition in HLM, CYP3A4/5 (testosterone, midazolam); assay type: in vitro ADME, human
Procedure: (§1) The markers used to determine the activities of CYP isoforms were phenacetin O-deethylation for CYP1A2 (probe substrate: 50 µM phenacetin), bupropion hydroxylation for CYP2B6 (probe substrate: 70 µM bupropion), paclitaxel 6α-hydroxylation for CYP2C8 (probe substrate: 10 µM paclitaxel), diclofenac 4′-hydroxylation for CYP2C9 (probe substrate: 5 µM diclofenac), S-(+)-mephenytoin 4′-hydroxylation for CYP2C19 (probe substrate: 20 µM S-(+)-mephenytoin), dextromethorphan O-demethylation for CYP2D6 (probe substrate: 6 µM dextromethorphan), chlorzoxazone 6′-hydroxylation for CYP2E1 (probe substrate: 70 µM chlorzoxazone), and testosterone 6β-hydroxylation and midazolam 1′-hydroxylation for CYP3A4/5 (probe substrate: 45 µM testosterone and 5 µM midazolam). […] Alpha-naphthoflavone (0.04 µM), 2-phenyl-2-(1-piperidinyl)propane (5 µM), quercetin (1 µM), sulfaphenazole (0.5 µM), ticlopidine (4 µM), quinidine (0.2 µM), diethyldithiocarbamate (20 µM), and ketoconazole (0.05 µM) were used as positive inhibitors of CYP1A2, 2B6, 2C8, 2C9, 2C19, 2D6, 2E1, and 3A4, respectively. The vehicle control was prepared in the same composition as inhibitor solutions but free of inhibitors. The concentrations of probe substrates were close to Km values that were determined in-house and within the range recommended by the FDA ([Huang et al., 2007]). Reaction mixtures were incubated at 37°C for 5, 20, or 30 min, depending on the probe substrates of CYP isoforms. The reactions were terminated by adding cold acetonitrile containing IS, and the terminated incubation mixtures were centrifuged at 3,000 g for 10 min before LC-MS/MS analysis.

CYP2C19 = target: T1, CYP2C19 (Homo sapiens, UniProt P33261); test: Reversible CYP inhibition in HLM, CYP2C19 (S-mephenytoin); assay type: in vitro ADME; conditions: for enzyme activity remaining: CYP2C19, HLM
T1 construct: tissue Life Technologies (Durham, NC, USA); host or cells: human liver microsomes
Procedure: as §1

CYP2C8 = target: T2, CYP2C8 (Homo sapiens, UniProt P10632); test: Reversible CYP inhibition in HLM, CYP2C8 (paclitaxel); assay type: in vitro ADME; conditions: for enzyme activity remaining: CYP2C8, HLM
T2 construct: tissue Life Technologies (Durham, NC, USA); host or cells: human liver microsomes
T2 sequence (P10632 1-490): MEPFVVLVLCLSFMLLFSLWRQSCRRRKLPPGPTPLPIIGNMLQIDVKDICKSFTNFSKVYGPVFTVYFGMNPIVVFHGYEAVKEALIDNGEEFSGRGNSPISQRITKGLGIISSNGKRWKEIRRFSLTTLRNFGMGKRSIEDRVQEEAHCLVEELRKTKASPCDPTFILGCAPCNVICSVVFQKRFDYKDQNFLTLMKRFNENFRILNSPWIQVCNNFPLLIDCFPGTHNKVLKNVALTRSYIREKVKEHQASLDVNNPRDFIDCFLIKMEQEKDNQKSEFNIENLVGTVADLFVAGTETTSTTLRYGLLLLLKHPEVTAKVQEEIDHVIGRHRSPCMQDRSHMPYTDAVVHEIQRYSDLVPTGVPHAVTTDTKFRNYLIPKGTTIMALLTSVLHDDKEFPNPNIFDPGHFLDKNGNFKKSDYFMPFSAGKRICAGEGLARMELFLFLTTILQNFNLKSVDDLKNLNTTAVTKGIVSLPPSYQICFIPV
Procedure: as §1

[1] = humans, RP2D 30 mg, phase Ib (n = 90); ref European Society for Medical Oncology, 2021; cited from earlier work
plasma proteins = test: Plasma protein binding (RED), human plasma; assay type: in vitro ADME
Procedure: (§2) The plate containing plasma and buffer was equilibrated for 6 h in a 37°C water shaking bath. After incubation, aliquots of buffer and plasma (20 µL) on both sides were collected and precipitated using organic solvents. […] The post-dialysis recovery of amdizalisib was also measured.

[2] = Plasma protein binding (RED), human plasma; assay type: in vitro ADME; conditions: mouse, rat, dog, monkey, human, plasma, pH 7.4; all species, all cases (data not shown); read-out: post-dialysis recovery
Procedure: as §2

CYP2D6 = target: T3, CYP2D6 (Homo sapiens, UniProt P10635); test: Reversible CYP inhibition in HLM, CYP2D6 (dextromethorphan); assay type: in vitro ADME; conditions: for enzyme activity remaining: CYP2D6, HLM
T3 construct: tissue Life Technologies (Durham, NC, USA); host or cells: human liver microsomes
Procedure: as §1

CYP2C9 = target: T4, CYP2C9 (Homo sapiens, UniProt P11712); test: Reversible CYP inhibition in HLM, CYP2C9 (diclofenac); assay type: in vitro ADME; conditions: for enzyme activity remaining: CYP2C9, HLM
T4 construct: tissue Life Technologies (Durham, NC, USA); host or cells: human liver microsomes
Procedure: as §1

[3] = Single-dose PK in cynomolgus monkeys (IV/PO); assay type: in vivo, cynomolgus monkey
[4] = HLM, reversible, without pre-incubation
[5] = both sexes, cynomolgus monkey, in vivo, iv, 1 mg/kg
[6] = both sexes, cynomolgus monkey, in vivo, po, 5 mg/kg

T1 sequence (P33261 whole entry): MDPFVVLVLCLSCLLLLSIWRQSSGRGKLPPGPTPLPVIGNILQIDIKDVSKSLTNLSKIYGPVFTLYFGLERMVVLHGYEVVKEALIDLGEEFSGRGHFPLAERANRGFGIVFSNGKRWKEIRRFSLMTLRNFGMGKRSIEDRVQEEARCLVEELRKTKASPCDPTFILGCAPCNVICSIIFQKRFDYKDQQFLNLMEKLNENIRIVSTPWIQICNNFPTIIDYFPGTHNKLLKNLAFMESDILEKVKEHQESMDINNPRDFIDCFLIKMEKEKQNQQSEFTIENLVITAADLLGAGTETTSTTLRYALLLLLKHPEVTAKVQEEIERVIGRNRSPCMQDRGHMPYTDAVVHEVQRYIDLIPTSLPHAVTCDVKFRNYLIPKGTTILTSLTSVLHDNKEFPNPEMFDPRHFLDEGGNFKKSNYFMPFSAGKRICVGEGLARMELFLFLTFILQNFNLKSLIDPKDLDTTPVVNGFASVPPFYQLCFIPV
T4 sequence (P11712 whole entry): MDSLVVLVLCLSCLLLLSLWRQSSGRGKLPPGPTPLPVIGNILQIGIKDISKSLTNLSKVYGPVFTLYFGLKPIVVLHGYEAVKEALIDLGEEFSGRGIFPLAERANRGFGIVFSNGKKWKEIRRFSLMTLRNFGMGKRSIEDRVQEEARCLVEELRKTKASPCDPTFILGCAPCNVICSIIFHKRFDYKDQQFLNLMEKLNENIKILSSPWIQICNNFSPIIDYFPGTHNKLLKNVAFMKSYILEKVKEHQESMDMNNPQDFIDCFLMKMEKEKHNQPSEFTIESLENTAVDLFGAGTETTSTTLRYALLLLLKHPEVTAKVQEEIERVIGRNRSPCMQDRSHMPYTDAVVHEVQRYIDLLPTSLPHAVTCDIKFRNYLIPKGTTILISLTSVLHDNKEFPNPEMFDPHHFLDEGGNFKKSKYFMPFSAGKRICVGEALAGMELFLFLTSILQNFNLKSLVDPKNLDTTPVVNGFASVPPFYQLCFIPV
T3 sequence (P10635 whole entry): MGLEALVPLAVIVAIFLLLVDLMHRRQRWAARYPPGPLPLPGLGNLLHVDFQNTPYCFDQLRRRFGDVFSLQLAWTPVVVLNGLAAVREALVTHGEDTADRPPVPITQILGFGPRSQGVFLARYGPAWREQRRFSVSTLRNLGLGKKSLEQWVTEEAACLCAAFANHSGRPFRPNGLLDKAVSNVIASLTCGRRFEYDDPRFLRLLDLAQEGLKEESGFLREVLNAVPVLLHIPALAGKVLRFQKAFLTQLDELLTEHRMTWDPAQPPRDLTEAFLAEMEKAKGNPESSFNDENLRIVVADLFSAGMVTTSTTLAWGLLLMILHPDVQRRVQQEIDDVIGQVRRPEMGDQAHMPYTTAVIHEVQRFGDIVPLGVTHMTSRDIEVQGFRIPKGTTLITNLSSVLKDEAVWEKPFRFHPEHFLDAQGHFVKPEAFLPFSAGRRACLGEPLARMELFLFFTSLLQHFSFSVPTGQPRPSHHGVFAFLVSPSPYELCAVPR

SMILES: C[C@H](Nc1ncnc(N)c1C#N)c1cc2ncc(Cl)n2nc1-c1ccccc1 [Amdizalisib]
- enzyme activity remaining (CYP3A4/5; CYP3A4_Midazolam, 0.08 μM): 93.8% and 105%
- enzyme activity remaining (CYP3A4/5; CYP3A4_Midazolam, 0.4 μM): 106% and 103%
- enzyme activity remaining (CYP3A4/5; CYP3A4_Midazolam, 2 μM): 103% and 100%
- enzyme activity remaining (CYP3A4/5; CYP3A4_Midazolam, 10 μM): 99.4% and 101%
- enzyme activity remaining (CYP3A4/5; CYP3A4_Midazolam, 50 μM): 89.1% and 86.3%
- enzyme activity remaining (CYP3A4/5; CYP3A4_Testosterone, 0.08 μM): 101% and 99.4%
- enzyme activity remaining (CYP3A4/5; CYP3A4_Testosterone, 0.4 μM): 86.1% and 90.5%
- enzyme activity remaining (CYP3A4/5; CYP3A4_Testosterone, 2 μM): 89.9% and 94.3%
- enzyme activity remaining (CYP3A4/5; CYP3A4_Testosterone, 10 μM): 83.5% and 84.8%
- enzyme activity remaining (CYP3A4/5; CYP3A4_Testosterone, 50 μM): 86.7% and 69.0%
- IC50 (CYP3A4/5; human, human liver microsomes, reversible, without pre-incubation): > 50 µM
- enzyme activity remaining (CYP2C19; 0.08 μM): 97.1% and 111%
- enzyme activity remaining (CYP2C19; 0.4 μM): 105%
- enzyme activity remaining (CYP2C19; 0.4 μM, listed as amdizalisib): 99.5%
- enzyme activity remaining (CYP2C19; 2 μM): 102% and 98.0%
- enzyme activity remaining (CYP2C19; 10 μM): 96.6% and 88.1%
- enzyme activity remaining (CYP2C19; 50 μM): 68.6% and 65.9%
- IC50 (CYP2C19; [4]): > 50 µM
- enzyme activity remaining (CYP2C8; 0.08 μM): 110% and 105%
- enzyme activity remaining (CYP2C8; 0.4 μM): 105% and 109%
- enzyme activity remaining (CYP2C8; 2 μM): 98.8% and 104%
- enzyme activity remaining (CYP2C8; 10 μM): 67.3% and 76.5%
- enzyme activity remaining (CYP2C8; 50 μM): 38.0% and 39.6%
- IC50 (CYP2C8; [4]): 30.4 µM
- Grade 3 diarrhea [1]: 2.2%
- colitis [1]: no colitis cases were reported
- serious GI toxicity [1]: less than 5%
- Binding fraction to plasma proteins, Human (plasma proteins; 0.1 µM): 94.0 ± 0.86%
- Binding fraction to plasma proteins, Human (plasma proteins; 1 µM): 92.8 ± 0.54%
- Binding fraction to plasma proteins, Human (plasma proteins; 20 µM): 92.4 ± 0.15%
- stability in plasma post-incubation (plasma proteins; all species, 37°C 6 h (data not shown)): > 90%
- fraction unbound at 6 h (plasma proteins; plasma, pH 7.4, all species (mouse, rat, dog, monkey, human), 0.1–20 μM): ~0.1
- recovery at 6 h [2]: > 90%
- enzyme activity remaining (CYP2D6; 0.08 μM): 103%
- enzyme activity remaining (CYP2D6; 0.4 μM): 103% and 107%
- enzyme activity remaining (CYP2D6; 2 μM): 104% and 98.0%
- enzyme activity remaining (CYP2D6; 10 μM): 98.0% and 98.6%
- enzyme activity remaining (CYP2D6; 50 μM): 80.0% and 84.5%
- IC50 (CYP2D6; [4]): > 50 µM
- enzyme activity remaining (CYP2C9; 0.08 μM): 98.3% and 99.7%
- enzyme activity remaining (CYP2C9; 0.4 μM): 94.2% and 95.6%
- enzyme activity remaining (CYP2C9; 2 μM): 82.6%
- enzyme activity remaining (CYP2C9; 10 μM): 53.7% and 52.8%
- enzyme activity remaining (CYP2C9; 50 μM): 17.2% and 16.0%
- IC50 (CYP2C9; [4]): 10.7 µM
- FPO ([3]; Cynomolgus monkey, fasted, PO 5 mg/kg, 5 mg/kg): 30.8 ± 8.48%
- AUC(0-inf) [3, 5]: 1.52 µg·h/mL
- AUC(0-t) [3, 5]: 1.49 µg·h/mL
- MRT [3, 5]: 2.2 ± 0.551 h
- clearance [3, 5]: 0.678 ± 0.142 L/h/kg
- AUC(0-inf) [3, 6]: 2.39 µg·h/mL
- AUC(0-t) [3, 6]: 2.33 µg·h/mL
- Cmax [3, 6]: 0.48 ± 0.147 µg/mL
- MRT [3, 6]: 4.9 ± 1 h
- Tmax [3, 6]: 2 ± 0.632 h
- half-life [3, 6]: 3.1 ± 0.89 h
- Vd ([3]; both sexes, in vivo, Cynomolgus monkey, fasted, IV 1 mg/kg, read-out: Vss): 1.45 ± 0.207 L/kg
- half-life ([3]; both sexes, in vivo, Cynomolgus monkey, fasted, IV 1 mg/kg, read-out: t1/2 (converted)): 2.82 ± 0.469 h
- CL as % of the hepatic blood flow ([3]; both, cynomolgus monkey, in vivo, iv): 25.7%
- FPO ([3]; both, cynomolgus monkey, in vivo, po, 5 mg/kg): 30.8%
